Here are results for 25 molecules from US20230012368A1 (Hoffmann-La Roche Inc., priority 2018, published 2023).

The IC90 is the point of the concentration-response curve where the effect stands at 90%.

For the assay, the system named is Acinetobacter baumannii ATCC 17978. As to the kind of experiment: Antimicrobial susceptibility testing: 90% growth inhibitory concentration (IC90) determination. To be noted: Acinetobacter baumannii, ATCC17978, 16 h, 90% growth inhibitory concentration; Acinetobacter baumannii ATCC17978; Iso-Sensitest broth, OD 600 nm over 16h; read-out: ATCC17978 IC90. The format is cell-based. In a few lines:
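Growth of the Acinetobacter baumannii strain was followed by optical density at 600 nm every 20 minutes for 16h at 35±2° C. Inoculum was ~5×10^(5) CFU/ml in Iso-Sensitest medium, with twofold compound dilutions (e.g. 50 to 0.097 μM final). The 90% inhibitory concentration was derived in log-phase growth.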
For `COc1ccc(-c2cnc3c(Nc4ccc(C(=O)NCCCC[C@H](N)C(=O)O)c(C)c4)nccn23)c(F)c1F` [Example 349, (2S)-2-amino-6-[[4-[[3-(2,3-difluoro-4-methoxyphenyl)imidazo[1,2-a]pyrazin-8-yl]amino]-2-methylbenzoyl]amino]hexa-noic acid;2,2,2-trifluoroacetic acid], the IC90 came to 1100 nM.

`CCc1cc(Nc2nccn3c(-c4ccc(OC)c(F)c4F)cnc23)ccc1C(=O)NCCNC(=O)N1CCN[C@H](C(=O)O)C1` [Example 350, (2S)-4-[2-[[4-[[3-(2,3-difluoro-4-methoxyphenyl)imidazo[1,2-a]pyrazin-8-yl]amino]-2-ethylbenzoyl]amino]ethylcar-bamoyl]piperazine-2-carboxylic acid;formic acid]: the IC90 is 1200 nM.

For `CCc1cc(Nc2nccn3c(-c4ccc(Cl)cc4Cl)cnc23)ccc1C(=O)NCCNC(=O)[C@H](N)CCCNC(=N)N` [Example 351, N-[2-[[(2R)-2-amino-5-carbamimidamidopentanoyl]amino]ethyl]-4-[[3-(2,4-dichlorophenyl)imidazo[1,2-a]pyrazin-8-yl]amino]-2-ethylbenzamide;formic acid], the IC90 turned out to be 1300 nM. For `COc1ccc(-c2cnc3c(Nc4ccc(C(=O)NCCNC(=O)N5CCN[C@@H](C(=O)O)C5)c(C)c4)nccn23)c(F)c1F` [Example 352, (2R)-4-[2-[[4-[[3-(2,3-difluoro-4-methoxyphenyl)imidazo[1,2-a]pyrazin-8-yl]amino]-2-methylbenzoyl]amino]ethyl-carbamoyl]piperazine-2-carboxylic acid;formic acid], the IC90 is 1300 nM. With `COc1ccc(-c2cnc3c(Nc4ccc(C(=O)NCCCNC(=O)CC[C@H](N)C(=O)O)c(C)c4)nccn23)c(F)c1F` [Example 355, (2S)-2-amino-5-[3-[[4-[[3-(2,3-difluoro-4-methoxyphenyl)imidazo[1,2-a]pyrazin-8-yl]amino]-2-methylbenzoyl]amino]propyl-amino]-5-oxopentanoic acid], the IC90 came out at 2500 nM. For `CCc1cc(Nc2nccn3c(-c4ccc(OC)c(F)c4F)cnc23)ccc1C(=O)NCCCNC(=O)C1CNC(=N)N1` (stereo not shown) [Example 356, N-[3-[[4-[[3-(2,3-difluoro-4-methoxyphenyl)imidazo[1,2-a]pyrazin-8-yl]amino]-2-ethylbenzoyl]amino]propyl]-2-iminoimidazolidine-4-carboxamide], the IC90 was 50 nM. With `Cc1cc(Nc2nccn3c(-c4ccc(OCC#N)c(F)c4F)cnc23)ccc1C(=O)NCCCNC(=O)[C@@H]1C[C@@H](O)CN1` [Example 357, (2S,4R)-N-[3-[[4-[[3-[4-(cyanomethoxy)-2,3-difluorophenyl]imidazo[1,2-a]pyrazin-8-yl]amino]-2-methylbenzoyl]amino]propyl]-4-hydroxypyrrolidine-2-carboxamide], the IC90 was 50 nM. As for `COc1ccc(-c2cnc3c(Nc4ccc(C(=O)NCCCNC(=O)[C@@H]5C[C@@H](O)CN5)c(C)c4)nccn23)c(F)c1F` [Example 358, (2S,4R)-N-[3-[[4-[[3-(2,3-difluoro-4-methoxyphenyl)imidazo[1,2-a]pyrazin-8-yl]amino]-2-methylbenzoyl]amino]propyl]-4-hydroxypyrrolidine-2-carboxamide], the IC90 was 50 nM.

As to `CCc1cc(Nc2nccn3c(-c4ccc(OC)c(F)c4F)cnc23)ccc1C(=O)NCCCNC(=O)[C@@H](N)CNC(=N)N` [Example 359, N-[3-[[(2S)-2-amino-3-carbamimidamidopropanoyl]amino]propyl]-4-[[3-(2,3-difluoro-4-methoxyphenyl)imidazo[1,2-a]pyrazin-8-yl]amino]-2-ethylbenzamide], the concentration for an effect of 90% (IC90) was 60 nM.

For `CCc1cc(Nc2nccn3c(-c4ccc(OC)c(F)c4F)cnc23)ccc1C(=O)NCCNC(=O)CCCN` [Example 360, N-[2-(4-aminobutanoylamino)ethyl]-4-[[3-(2,3-difluoro-4-methoxyphenyl)imidazo[1,2-a]pyrazin-8-yl]amino]-2-ethylbenzamide], the IC90 is 70 nM.

Regarding `COc1ccc(-c2cnc3c(Nc4ccc(C(=O)NCCCNC(=O)[C@@H]5C[C@](C)(O)CN5)c(C)c4)nccn23)c(F)c1F` [Example 361, (2S,4S)-N-[3-[[4-[[3-(2,3-difluoro-4-methoxyphenyl)imidazo[1,2-a]pyrazin-8-yl]amino]-2-methylbenzoyl]amino]propyl]-4-hydroxy-4-methylpyrrolidine-2-carboxamide], the IC90 came out at 80 nM.

As to `COc1ccc(-c2cnc3c(Nc4ccc(C(=O)N5CCN(C(=O)[C@@H]6C[C@@](C)(O)CN6)CC5)c(C)c4)nccn23)c(F)c1F` [Example 362, [4-[[3-(2,3-difluoro-4-methoxyphenyl)imidazo[1,2-a]pyrazin-8-yl]amino]-2-methylphenyl]-[4-[(2S,4R)-4-hydroxy-4-methylpyrrolidine-2-carbonyl]piperazin-1-yl]methanone], the IC90 is 80 nM.

For the molecule `COc1ccc(-c2cnc3c(Nc4ccc(C(=O)NCCNC(=O)[C@@H]5C[C@@H](O)CN5)c(C)c4)nccn23)c(F)c1F` [Example 363, (2S,4R)-N-[2-[[4-[[3-(2,3-difluoro-4-methoxyphenyl)imidazo[1,2-a]pyrazin-8-yl]amino]-2-methylbenzoyl]amino]ethyl]-4-hydroxypyrrolidine-2-carboxamide], the IC90 is 90 nM. Next, `CCc1cc(Nc2nccn3c(-c4ccc(OC)c(F)c4F)cnc23)ccc1C(=O)NCCNC(=O)CCN` [Example 364, N-[2-(3-aminopropanoylamino)ethyl]-4-[[3-(2,3-difluoro-4-methoxyphenyl)imidazo[1,2-a]pyrazin-8-yl]amino]-2-ethylbenzamide]: 90 nM. For the molecule `Cc1cc(Nc2nccn3c(-c4ccc(OCC#N)c(F)c4F)cnc23)ccc1C(=O)NCCNC(=O)[C@@H]1C[C@@H](O)CN1` [Example 365, (2S,4R)-N-[2-[[4-[[3-[4-(cyanomethoxy)-2,3-difluorophenyl]imidazo[1,2-a]pyrazin-8-yl]amino]-2-methylbenzoyl]amino]ethyl]-4-hydroxypyrrolidine-2-carboxamide], the IC90 was determined as 90 nM. Next, `CC[C@@]1(O)CN[C@H](C(=O)NCCNC(=O)c2ccc(Nc3nccn4c(-c5ccc(OCC#N)c(F)c5F)cnc34)cc2C)C1` [Example 366, (2S,4S)-N-[2-[[4-[[3-[4-(cyanomethoxy)-2,3-difluorophenyl]imidazo[1,2-a]pyrazin-8-yl]amino]-2-methylbenzoyl]amino]ethyl]-4-ethyl-4-hydroxypyrrolidine-2-carboxamide]: 100 nM. Take `CCc1cc(Nc2nccn3c(-c4ccc(OC)c(F)c4F)cnc23)ccc1C(=O)NCCCNC(=O)[C@@H](N)CCNC(=N)N` [Example 367, N-[3-[[(2S)-2-amino-4-carbamimidamidobutanoyl]amino]propyl]-4-[[3-(2,3-difluoro-4-methoxyphenyl)imidazo[1,2-a]pyrazin-8-yl]amino]-2-ethylbenzamide;formic acid]: the IC90 is 100 nM. On to `CCc1cc(Nc2nccn3c(-c4ccc(OC)c(F)c4F)cnc23)ccc1C(=O)NCCNC(=O)CN` [Example 368, N-[2-[(2-aminoacetyl)amino]ethyl]-4-[[3-(2,3-difluoro-4-methoxyphenyl)imidazo[1,2-a]pyrazin-8-yl]amino]-2-ethylbenzamide], for which the IC90 turned out to be 120 nM. For the molecule `CCc1cc(Nc2nccn3c(-c4ccc(OC)c(F)c4F)cnc23)ccc1C(=O)NCCNC(=O)[C@@H]1C[C@@H](O)CN1` [Example 370, (2S,4R)-N-[2-[[4-[[3-(2,3-difluoro-4-methoxyphenyl)imidazo[1,2-a]pyrazin-8-yl]amino]-2-ethylbenzoyl]amino]ethyl]-4-hydroxypyrrolidine-2-carboxamide], the 90% effect concentration (IC90) worked out at 140 nM. Next, `CC[C@@]1(O)CN[C@H](C(=O)NCCNC(=O)c2ccc(Nc3nccn4c(-c5ccc(OC)c(F)c5F)cnc34)cc2C)C1` [Example 371, (2S,4S)-N-[2-[[4-[[3-(2,3-difluoro-4-methoxyphenyl)imidazo[1,2-a]pyrazin-8-yl]amino]-2-methylbenzoyl]amino]ethyl]-4-ethyl-4-hydroxypyrrolidine-2-carboxamide]: 150 nM. Next, `COc1ccc(-c2cnc3c(Nc4ccc(C(=O)NCCNC(=O)[C@@H]5C[C@](C)(O)CN5)c(C)c4)nccn23)c(F)c1F` [Example 372, (2S,4S)-N-[2-[[4-[[3-(2,3-difluoro-4-methoxyphenyl)imidazo[1,2-a]pyrazin-8-yl]amino]-2-methylbenzoyl]amino]ethyl]-4-hydroxy-4-methylpyrrolidine-2-carboxamide]: 150 nM. Take `CCc1cc(Nc2nccn3c(-c4ccc(OC)c(F)c4F)cnc23)ccc1C(=O)NCCNC(=O)[C@@H](N)CO` [Example 373, N-[2-[[(2S)-2-amino-3-hydroxypropanoyl]amino]eth-yl]-4-[[3-(2,3-difluoro-4-methoxyphenyl)imidazo[1,2-a]pyrazin-8-yl]amino]-2-ethylbenzamide]: the IC90 amounted to 150 nM. For the molecule `CCc1cc(Nc2nccn3c(-c4ccc(OC)c(F)c4F)cnc23)ccc1C(=O)NCC(O)CNC(=O)CN` (stereo not shown) [Example 374, N-[3-[(2-aminoacetyl)amino]-2-hydroxypropyl]-4-[[3-(2,3-difluoro-4-methoxyphenyl)imidazo[1,2-a]pyrazin-8-yl]amino]-2-ethylbenzamide], the concentration for an effect of 90% (IC90) came to 190 nM. Consider `CCc1cc(Nc2nccn3c(-c4ccc(OC)c(F)c4F)cnc23)ccc1C(=O)N[C@H](C)CCNC(=O)[C@@H](N)CCCNC(=N)N` [Example 375, N-[(2R)-4-[[(2S)-2-amino-5-carbamimidamidopentanoyl]amino]butan-2-yl]-4-[[3-(2,3-difluoro-4-methoxyphenyl)imidazo[1,2-a]pyrazin-8-yl]amino]-2-ethylbenzamide], for which the IC90 worked out at 190 nM. The same measure for `CCc1cc(Nc2nccn3c(-c4ccc(OC)c(F)c4F)cnc23)ccc1C(=O)NCCNC(=O)CC(O)CN` (stereo not shown) [Example 376, N-[2-[(4-amino-3-hydroxybutanoyl)amino]ethyl]-4-[[3-(2,3-difluoro-4-methoxyphenyl)imidazo[1,2-a]pyrazin-8-yl]amino]-2-ethylbenzamide]: 200 nM.
